These results are taken from patent publication US20210322422A1, “USE OF AKT INHIBITORS IN OPHTHALMOLOGY” (Hoffmann-La Roche Inc., priority 2018, published 2021).

Common to all, as to assay type: in vivo, mouse
Assay [1] has as its system Cryba1 cKO mice. Put plainly: flow cytometry estimation of percentage neutrophils in retina after intravitreal injection. The note with it: male, 12 months old, intravitreal 500 uM, once weekly for three weeks, versus vehicle or untreated. As to the method: Mouse retinas were dissected from enucleated eyes and digested with 0.05% collagenase D at 37° C. for 30 min, teased with blunt end forceps and pipetted to release cells, passed through a 70 μm cell strainer, centrifuged at 1,300 g, 4° C. for 20 minutes^10. The entire pellet was used for staining with the FITC-tagged cell surface markers CD45, V450-tagged Ly6G and Alexa fluor 700-tagged CD11b (BD Pharmigen™, USA) at a concentration of 1 μg/ml in PBS containing 1% BSA for 1 h. Cells were washed and analyzed on a flow cytometer (BD Aria III, FACS DIVA software, BD Biosciences, USA and FlowJo software-version 7.6.5), SSC-A/CD45+(FITC) cells were manually gated and among this population of cells; % Ly6G+ and % CD11b+Ly6G+ cells were quantified.
Cryba1^fl/fl and Cryba1 cKO mice (Male, 12 months old; n=4) were anaesthetized by intraperitoneal injection of 0.15 ml of ketamine (2.5 mg/ml)+ xylazine (0.5 mg/ml) mixture. Topical anesthesia (proparacaine hydrochloride) was applied to the eye and pupils dilated with a drop of topical 2.5% phenylephrine hydrochloride ophthalmic solution. The eye was proptosed by slight depression of the lower lid with blunt curved forceps and washed with sterile saline. […] All instruments were sterilized with a steam autoclave. Bacitracin Ophthalmic ointment was applied postoperatively^6. […]

In a further assay the test system is AKT2 (p-AKT2 S474). Put plainly: immunoblot of AKT2 phosphorylation in retinas after intravitreal injection. The note with it: 1-year-old Cryba1 cKO mice. As to the method:
SDS-PAGE and western blot analyses were performed as previously described^12. The primary antibodies were used at a dilution of 1:1000 whereas, all secondary antibodies were used at a dilution of 1:3000.
(§1) Cryba1^fl/fl and Cryba1 cKO mice (Male, 12 months old; n=4) were anaesthetized by intraperitoneal injection of 0.15 ml of ketamine (2.5 mg/ml)+ xylazine (0.5 mg/ml) mixture. Topical anesthesia (proparacaine hydrochloride) was applied to the eye and pupils dilated with a drop of topical 2.5% phenylephrine hydrochloride ophthalmic solution. The eye was proptosed by slight depression of the lower lid with blunt curved forceps and washed with sterile saline. […] All instruments were sterilized with a steam autoclave. Bacitracin Ophthalmic ointment was applied postoperatively^6. Animals were euthanized with CO2 gas four weeks after the first injection and the retinas were harvested.
On the technique in general: Immunoblotting shows a protein as a band on a membrane.

Assay [2] relates to Cryba1 cKO mice. Briefly: ELISA of CXCL1 and IFNλ in RPE-choroid after intravitreal injection. Conditions: versus age-matched vehicle and untreated. As to the method: The RPE choroid complexes harvested from freshly enucleated mouse eyes were kept on ice and then homogenized in 300 μL of complete extraction buffer (Abcam, USA) per 5 mg of tissue. The homogenized tissue was allowed to stay in constant agitation for 2 h at 4° C., centrifuged at 13,000 rpm at 4° C. for 20 min. The supernatants were aliquoted and stored at −80° C. and were subsequently used to perform ELISA to evaluate the levels of IFNλ, and CXCL1, as previously described^13.
as §1

Assay [3] has as its system Cryba1 cKO mice. Briefly: histological sections (H&E) of retina after intravitreal injection. Conditions: 1 year old, versus vehicle. As to the method: as §1
For hematoxylin and eosin (H&E) staining, eyes from NOD-SCID mice (n=10) were enucleated and fixed initially in 2.5% glutaraldehyde for 72 h, followed by 10% buffered formalin. The eyes were embedded in methyl-methacrylate, sectioned and stained as previously described″.

Each structure is given as a SMILES string. Entries after “also recorded” stand apart in the source; their conditions may differ.

As for `NC1(Cc2ccc(Cl)cc2)CCN(c2ncnc3[nH]ccc23)CC1` [CCT128930], in the assay with Cryba1 cKO mice [1], the “infiltrating neutrophils (% Ly6G+ and % CD11b+Ly6G+ cells) in retina” value is listed as “decrease in infiltrating neutrophils; also recorded: significantly fewer neutrophils in the retinas”. For the same compound, the “levels of total AKT in retina” value in the assay with AKT2 (p-AKT2 S474) (immunoblot) is recorded as “levels of total AKT did not change”. For the same compound, the “levels of pAKT2 (p-AKT2 S474) in retina” value with AKT2 (p-AKT2 S474) (immunoblot densitometry, versus vehicle) is listed as “significantly decreased the levels of pAKT2; also recorded: reduced”. In the assay with Cryba1 cKO mice [2], the “CXCL1 levels in RPE-choroid” value is listed as “reduced levels” and the “IFNλ levels in RPE-choroid” value is listed as “reduced levels”. Further, the “retinal structure / early RPE abnormalities (H&E)” value in the assay with Cryba1 cKO mice [3] was “exhibited normal structure; also recorded: reverses these early RPE abnormalities”.
